Key:
[1] = Determination of maximum absorption wavelength (λmax) after UV irradiation in solution; type: physicochemical; design: key: *: Fades too fast to obtain readings; conditions: cyclohexane
[2] = Determination of fade time T1/2 after isolation from the activating UV light; type: physicochemical; design: key: *: Fades too fast to obtain readings; conditions: chloroform, room temperature (72° F.)
Protocol: (§1) Each of the photochromic compounds (compound P) formed in step 2 of Examples 1-13 and Comparative Example 1 were independently dissolved in separate containers of chloroform. Additionally, a purchased sample of 3,3-diphenyl-naphtho-3H[2,1-b]pyran, identified as Comparative Example 2, was dissolved in a separate container of chloroform.
(§2) Each of the chloroform-dissolved photochromic compounds of Examples 1-13 and Comparative Examples 1-2 were then irradiated with ultraviolet light with a maximum wavelength of 350 nanometers and were measured for maximum absorption wavelength) λmax. The fade time, T1/2 was then determined for each of the irradiated compounds. The fade time for a particular chloroform dissolved photochromic compound is defined as the time interval, at room temperature (72° F.), for the absorbance of the activated form of the chloroform-dissolved photochromic compound to decrease to 1/2 of the maximum absorbance, after the photochromic compound is isolated from the activating source of ultraviolet light. The maximum absorption wavelength and fade time determined for each of the irradiated photochromic compounds of Examples 1-13 and Comparative Examples 1-2 are presented in Table 1: […]

[3] = Determination of maximum absorption wavelength (λmax) after UV irradiation in solution; type: physicochemical; conditions: for λmax: chloroform, irradiated with ultraviolet light with a maximum wavelength of 350 nanometers
Protocol: as §1, §2

[4] = U.S. Pat. No. 3,567,605 to Becker; cited from earlier work
[5] = Color of the compound or blend when activated by ultraviolet light; type: physicochemical
[6] = absorbance of activated form to decrease to 1/2 of maximum

SMILES	λmax [1]	λmax [3]	T1/2 (fade time) [2, 6]	other results
COc1ccc2c3c(ccc2c1)OC(c1ccccc1)(c1ccccc1)C=C3 [Comparative Example 1, 3,3-diphenyl-8-methoxy-3H-naphtho[2,1-b]pyran, reference compound]	451 Nanometers	472 Nanometers	10 s	–
C1=CC(c2ccccc2)(c2ccccc2)Oc2ccc3ccccc3c21 [Comparative Example 2, 3,3-diphenyl-naphtho-3H[2,1-b]pyran, reference compound]	415 Nanometers	435 Nanometers	13 s	photochromism [4]: photochromic at room temperature
COc1ccc2c3c(ccc2c1)OC1(C=C3)CCCc2ccccc21 (stereo not drawn) [Example 2, 8-methoxyspiro(3H-naphtho[2,1-b]pyran-3,1'-tetralone)]	465 Nanometers	474 Nanometers	15 s	–
COc1ccc2c3c(ccc2c1)OC1(C=C3)C(c2ccccc2)=C(c2ccccc2)c2ccccc21 (stereo not drawn) [Example 8, 2',3'-diphenyl-8-methoxyspiro(3H-naphtho[2,1-b]pyran-3,1'-indene)]	–	512 Nanometers	64 s	–
C1=CC2(Oc3ccc4ccccc4c31)c1ccccc1-c1ccccc12 [Example 9, spiro(3H-naphtho[2,1-b]pyran-3,9'-fluorene)]	438 Nanometers	445 Nanometers	10 s	maximum wavelengths of activation, compared with Comparative Example 2 ([3]; vs 3,3-diphenyl-naphtho-3H[2,1-b]pyran): longer maximum wavelengths of activation
CC1CCc2ccccc2C12C=Cc1c(ccc3ccccc13)O2 (stereo not drawn) [Example 11, 2'-methylspiro(3H-naphtho[2,1-b]pyran-3,1'-tetralone)]	–	444 Nanometers	–	T1/2 (fade time) ([2]; symbol, no reading): *

Continued, in another order:

λmax [1]	λmax [3]	SMILES	T1/2 (fade time) [2, 6]	other results
478 Nanometers	492 Nanometers	COc1ccc2c3c(ccc2c1)OC1(C=C3)c2ccccc2-c2ccccc21 [Example 1, 8-methoxyspiro(3H-naphtho [2,1-b]pyran-3,9'-fluorene)]	20 s	color when activated by ultraviolet light [5]: deep shade of orange; color of blend with blue-turning photochromic compounds when activated by ultraviolet radiation ([5]; blended with blue-turning photochromic compounds, such as substituted spiroindolino naphthoxazine): desirable, intense shade of gray; activated maximum wavelength of absorption ([3]; dissolved in chloroform, irradiated with ultraviolet light): about 492 nanometers; maximum wavelength of activation, compared with Comparative Example 1 ([3]; vs 3,3-diphenyl-8-methoxy-3H-naphtho[2,1-b]pyran): longer maximum wavelength of activation
–	445 Nanometers	COc1ccc2c3c(ccc2c1)OC1(C=C3)CCCc2cc(OC)c(OC)cc21 (stereo not drawn) [Example 3, 6',7'-dimethoxy-8-methoxyspiro(3H-naphtho[2,1-b]pyran-3,1'-tetralone)]	–	λmax ([1]; symbol, no reading): *; T1/2 (fade time) ([2]; symbol, no reading): *
–	476 Nanometers	COc1ccc2c3c(ccc2c1)OC1(C=C3)c2ccccc2CC(c2ccccc2)C1c1ccccc1 (stereo not drawn) [Example 5]	13 s	–
–	468 Nanometers	COc1ccc2c3c(ccc2c1)OC1(C=C3)c2ccccc2CCC1C (stereo not drawn) [Example 6, 2'-methyl-8-methoxyspiro(3H-naphtho[2,1-b]pyran-3,1'-tetralone)]	1.2 s	–
–	478 Nanometers	COc1ccc2c3c(ccc2c1)OC1(C=C3)c2ccccc2CC1C (stereo not drawn) [Example 7, 2'-methyl-8-methoxyspiro(3H-naphtho[2,1-b]pyran-3,1'-indan)]	396 s	–
–	454 Nanometers	C1=CC2(Oc3ccc4ccccc4c31)C(c1ccccc1)=C(c1ccccc1)c1ccccc12 (stereo not drawn) [Example 13]	35 s	–

Source: patent US5705102A, “Photochromic spironaphthopyran compounds” (Vision-Ease Lens, Inc., priority 1995, dated 1998)
